Among the data in ChEMBL document CHEMBL1799939, “Synthesis and biological evaluation of novel thiazolidinedione analogues as 15-hydroxyprostaglandin dehydrogenase inhibitors” (J Med Chem, 2011) are IC50 and Activity values, retold here.

SMILES strings stand for the structures. Active and inactive are the calls of the source. The rule behind the calls is not given here.

For assay [1], the target named is T1, 15-hydroxyprostaglandin dehydrogenase [NAD(+)] (Homo sapiens, UniProt P15428).
T1 sequence (P15428 whole entry): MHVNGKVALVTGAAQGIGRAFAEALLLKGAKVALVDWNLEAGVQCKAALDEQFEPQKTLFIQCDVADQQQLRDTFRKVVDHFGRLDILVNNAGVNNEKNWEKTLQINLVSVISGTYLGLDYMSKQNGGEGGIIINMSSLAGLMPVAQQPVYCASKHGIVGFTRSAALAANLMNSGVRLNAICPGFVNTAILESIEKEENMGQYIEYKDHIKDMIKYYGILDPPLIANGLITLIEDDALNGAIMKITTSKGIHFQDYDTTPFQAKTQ
As to the kind of experiment: Inhibition of human 15-PGDH expressed in Escherichia coli using PGE2 as substrate and NAD+ as coenzyme assessed as formation of NADH by spectrophotometric analysis.

For assay [2], the target named is T2, 15-hydroxyprostaglandin dehydrogenase [NAD(+)] (Homo sapiens) (UniProt P15428).
T2 sequence (whole entry): T1 sequence (P15428 whole entry)
As to the kind of experiment: Inhibition of human 15-PGDH in human A549 cells assessed as increase in IL1-beta stimulated PGE2 production at 5 uM after 5 hrs by enzyme immunoassay. It is filed as cell-based.

The test system of a further assay is HaCaT. As to the kind of experiment: Wound healing activity in human HaCaT cells assessed as re-epithelialization at 5 uM after 48 hrs by inverted microscopic analysis relative to control. It is filed as functional, cell-based.
Assay [3] has as its target T2, 15-hydroxyprostaglandin dehydrogenase [NAD(+)] (Homo sapiens). As to the kind of experiment: Inhibition of human 15-PGDH in human A549 cells assessed as increase in IL1-beta stimulated PGE2 production after 5 hrs by enzyme immunoassay. It is filed as cell-based.
Assay [4] deals with A549. In words: Induction of PGT expression in human A549 cells at 5 uM after 25 hrs by RT-PCR analysis. It is filed as functional, cell-based.
For assay [5], the system named is A549. In words: Effect on COX2 expression in human A549 cells at 5 uM after 25 hrs by RT-PCR analysis. It is filed as functional, cell-based.
The test system of assay [6] is A549. As to the kind of experiment: Effect on MRP4 expression in human A549 cells at 5 uM after 25 hrs by RT-PCR analysis. It is filed as functional, cell-based.
The test system of assay [7] is A549. In words: Inhibition of COX1 expression in human A549 cells at 5 uM after 25 hrs by RT-PCR analysis. The class given is functional, cell-based.
Assay [8] deals with Cavia porcellus. As to the kind of experiment: Increase in cochlear blood flow in guinea pig at 20 ug, iv measured after 50 mins. It is filed as functional.
Assay [9] has as its system Cavia porcellus. In words: Increase in cochlear blood flow in guinea pig at 10 ug, iv measured after 40 mins. It is filed as functional.

A word on the IC50: it is the concentration needed to halve the response being measured. As to `O=C1N=C(O)S/C1=C\c1ccc(OCCC2CCCCC2)c(Br)c1`, the IC50 in [1] was 19 nM. Further, the result (in assay [2]; with HaCaT) was Active.

On to `O=C1NC(=O)/C(=C/c2ccc(OC3CCCCC3)c(Cl)c2)S1`, for which the IC50 in [1] is 47 nM.

As to `COc1cc(/C=C2\SC(=O)N(C)C2=O)ccc1OCCC1CCCCC1`, in [3], the Activity result was “Dose-dependent effect”. Moreover, the IC50 in assay [1] was over 50000 nM.

Take `O=C1N=C(O)S/C1=C\c1ccc(OCCC2CCCCC2)c(Cl)c1`: the outcome (in the assay with A549 [4]; in [2]; with A549 [7]) was Active. For the same compound, the IC50 in assay [1] was 8 nM. Further, the outcome with A549 [5] and in the assay with A549 [6] was inactive.

In the case of `O=C1N=C(O)S/C1=C\c1ccc(OCCCCC2CCCCC2)c(Cl)c1`, in assay [1], the IC50 is 24 nM.

Take `O=C1N=C(O)S/C1=C\c1ccc(OCCCC2CCCCC2)c(Cl)c1`: the IC50 in [1] was 10 nM.

Regarding `O=C1NC(=O)/C(=C/c2ccc(OCC3CCCCC3)c(Cl)c2)S1`, the IC50 in assay [1] came to 28 nM.

On to `COc1cc(/C=C2\SC(=O)NC2=O)ccc1OCCC1CCCCC1`, for which the figures for the Activity entry (in assay [3]; with Cavia porcellus [8]; in the assay with Cavia porcellus [9]) were “Dose-dependent effect”, 65% and 22%, respectively. Further, the outcome (with A549 [4]; in assay [2]; with A549 [7]) was Active. Besides, in assay [1], the IC50 amounted to 25 nM. In addition, the result in the assay with A549 [5] and in the assay with A549 [6] was inactive.

On to `O=C1N=C(O)S/C1=C\c1ccc(OCCC2CCCCC2)cc1`, for which the result in assay [2] was Active.
